The source of these data is ChEMBL document CHEMBL3045590, “Design, synthesis, bioactivity, and structure-activity relationship (SAR) studies of novel benzoylphenylureas containing oxime ether group” (2008).

SMILES strings stand for the structures.

Common to all, as to format: functional
In experiment [1] the test system is Mythimna separata. Kind of experiment: Larvicidal activity against fourth-instar larval stage of Mythimna separata (Oriental armyworm) in compound-pretreated corn leaves assessed as mortality at 10 mg/l at 25 +/-1 degC after 4 days.
Experiment [2] relates to Culex pipiens pallens. The experiment can be described thus: Larvicidal activity against fourth-instar larval stage of Culex pipiens pallens (mosquito) assessed as mortality at 0.01 mg/l at 25 +/-1 degC after 8 days. The conditions noted are these: 192 h.
For experiment [3], the system named is Mythimna separata. Kind of experiment: Larvicidal activity against fourth-instar larval stage of Mythimna separata (Oriental armyworm) in compound-pretreated corn leaves assessed as mortality at 1 mg/l at 25 +/-1 degC after 4 days.
Experiment [4] deals with Mythimna separata. The experiment can be described thus: Larvicidal activity against fourth-instar larval stage of Mythimna separata (Oriental armyworm) in compound-pretreated corn leaves assessed as mortality at 2.5 mg/l at 25 +/-1 degC after 4 days.
The test system of experiment [5] is Mythimna separata. The experiment can be described thus: Larvicidal activity against fourth-instar larval stage of Mythimna separata (Oriental armyworm) in compound-pretreated corn leaves assessed as mortality at 0.5 mg/l at 25 +/-1 degC after 4 days.
The subject of experiment [6] is Mythimna separata. Kind of experiment: Larvicidal activity against fourth-instar larval stage of Mythimna separata (Oriental armyworm) in compound-pretreated corn leaves assessed as mortality at 25 mg/l at 25 +/-1 degC after 4 days.
The subject of experiment [7] is Culex pipiens pallens. Kind of experiment: Ratio of larvicidal activity of compound to larvicidal activity of Flucycloxuron for fourth-instar larval stage of Culex pipiens pallens (mosquito) measured after 8 days.
The subject of experiment [8] is Culex pipiens pallens. The experiment can be described thus: Larvicidal activity against fourth-instar larval stage of Culex pipiens pallens (mosquito) assessed as mortality at 0.0025 mg/l at 25 +/-1 degC after 8 days. The conditions noted are these: 192 h.
The subject of experiment [9] is Mythimna separata. Kind of experiment: Larvicidal activity against fourth-instar larval stage of Mythimna separata (Oriental armyworm) in compound-pretreated corn leaves assessed as mortality at 0.125 mg/l at 25 +/-1 degC after 4 days.
In experiment [10] the test system is Culex pipiens pallens. Kind of experiment: Larvicidal activity against fourth-instar larval stage of Culex pipiens pallens (mosquito) assessed as mortality at 0.001 mg/l at 25 +/-1 degC after 8 days. Particulars: 192 h.
For experiment [11], the system named is Mythimna separata. Kind of experiment: Larvicidal activity against fourth-instar larval stage of Mythimna separata (Oriental armyworm) in compound-pretreated corn leaves assessed as mortality at 5 mg/l at 25 +/-1 degC after 4 days.
Experiment [12] relates to Mythimna separata. Kind of experiment: Larvicidal activity against fourth-instar larval stage of Mythimna separata (Oriental armyworm) in compound-pretreated corn leaves assessed as mortality at 0.25 mg/l at 25 +/-1 degC after 4 days.
The subject of experiment [13] is Culex pipiens pallens. Kind of experiment: Larvicidal activity against fourth-instar larval stage of Culex pipiens pallens (mosquito) assessed as mortality at 0.005 mg/l at 25 +/-1 degC after 8 days. Particulars: 192 h.
Experiment [14] has as its system Culex pipiens pallens. The experiment can be described thus: Larvicidal activity against fourth-instar larval stage of Culex pipiens pallens (mosquito) assessed as mortality at 0.0005 mg/l at 25 +/-1 degC after 8 days. The conditions noted are these: 192 h.

By mortality is commonly meant the percentage killed. `CC1CCC(C(C)C)C(O/N=C/c2ccc(NC(=O)NC(=O)c3c(F)cccc3F)cc2)C1` (centres undefined): the mortality at 10 µg/mL in [1] is 100%. For the same compound, the mortality at 0.01 µg/mL in experiment [2] came out at 100%. In addition, the mortality at 1 µg/mL in [3] is 80%. For the same compound, the mortality at 2.5 µg/mL in experiment [4] was 100%. Besides, the mortality at 0.5 µg/mL in experiment [5] turned out to be 40%. For the same compound, the mortality at 25 µg/mL in experiment [6] was 100%. Also, the RatioLC50 in experiment [7] amounted to 10. For the same compound, the mortality at 0.0025 µg/mL in experiment [8] is 100%. For the same compound, the mortality at 0.125 µg/mL in experiment [9] amounted to 0%. The mortality at 0.001 µg/mL in [10] is 80%. Further, the mortality at 5 µg/mL in experiment [11] was 100%. The mortality at 0.25 µg/mL in [12] worked out at 10%. Further, the mortality at 0.005 µg/mL in experiment [13] worked out at 100%. Further, the mortality at 0.0005 µg/mL in experiment [14] stood at 10%.
